How the values were obtained:
[1] = target: human O-GlcNAcase (Homo sapiens (Human), UniProt O60502); experiment: Fluorescence-based assay for KI values for inhibition of O-GlcNAcase activity; format: biochemical; conditions: purified human O-GlcNAcase 0.7 nM, 2 mM 4-methylumbelliferyl GlcNAc substrate, pH 7.0, Cheng-Prusoff; read-out: Fluorescence-based hOGA Ki
Description: Assay for Determination of KI Values for Inhibition of O-GlcNAcase Activity
Experimental Procedure for Kinetic Analyses:
Enzymatic reactions were carried out in a reaction containing 50 mM NaH2PO4, 100 mM NaCl and 0.1% BSA (pH 7.0) using 2 mM 4-Methylumbelliferyl N-acetyl-β-D-glucosaminide dihydrate (Sigma M2133) dissolved in ddH2O, as a substrate. The amount of purified human O-GlcNAcase enzyme used in the reaction was 0.7 nM. Test compound of varying concentrations was added to the enzyme prior to initiation of the reaction. The reaction was performed at room temperature in a 96-well plate and was initiated with the addition of substrate. […] The slope of product production was determined for each concentration of compound tested and plotted, using standard curve fitting algorithms for sigmoidal dose response curves. The values for a four parameter logistic curve fit of the data were determined.

[2] = target: O-GlcNAcase (Rattus norvegicus (Rat), UniProt Q8VIJ5); experiment: Cell-based ELISA for cellular activity of compounds that inhibit O-GlcNAcase (O-GlcNAcylated protein detected with RL-2 antibody); conditions: rat PC-12 cells, treated 24 h, O-GlcNAcylated protein by RL-2 ELISA
Description: Assay for Determination of Cellular Activity for Compounds that Inhibit O-GlcNAcase Activity
Inhibition of O-GlcNAcase, which removes O-GlcNAc from cellular proteins, results in an increase in the level of O-GlcNAcylated protein in cells. An increase in 0-GlcNAcylated protein can be measured by an antibody, such as RL-2, that binds to 0-GlcNAcylated protein. The amount of O-GlcNAcylated protein:RL2 antibody interaction can be measured by enzyme linked immunosorbant assay (ELISA) procedures.
A variety of tissue culture cell lines, expressing endogenous levels of O-GlcNAcase, can be utilized; examples include rat PC-12, and human U-87, or SK-N-SH cells. In this assay, rat PC-12 cells are plated in 96-well plates with approximately 10,000 cells/well. Compounds to be tested are dissolved in DMSO, either 2 or 10 mM stock solution, and then diluted with DMSO and water in a two-step process using a Tecan workstation. […] To prepare a cell lysate, the media from compound treated cells is removed, the cells are washed once with phosphate buffered saline (PBS) and then lysed for 5 minutes at room temperature in 50 μL of Phosphosafe reagent (Novagen Inc, Madison, Wis.) with protease inhibitors and PMSF. The cell lysate is collected and transferred to a new plate, which is then either coated to assay plates directly or frozen −80° C. until used in the ELISA procedure. If desired, the total protein concentration of samples is determined using 20 μL of the sample using the BCA method.
The ELISA portion of the assay is performed in a black Maxisorp 96-well plate that is coated overnight at 4° C. with 100 μL/well of the cell lysate (1:10 dilution of the lysate with PBS containing protease inhibitors, phosphatase inhibitors, and PMSF). The following day the wells are washed 3 times with 300 μL/well of Wash buffer (Tris-buffered saline with 0.1% Tween 20). The wells are blocked with 100 μL/well Blocking buffer (Tris buffered saline w/0.05% Tween 20 and 2.5% Bovine serum albumin). Each well is then washed two times with 300 μL/well of wash buffer. The anti O-GlcNAc antibody RL-2 (Abcam, Cambridge, Mass.), diluted 1:1000 in blocking buffer, is added at 100 μL/well. The plate is sealed and incubated at 37° C. for 2 h with gentle shaking. The wells are then washed 3-times with 300 μL/well wash buffer. […] The detection reaction is incubated for 15 minutes at room temperature and then read with excitation at 530 nm and emission at 590 nm.
The amount of O-GlcNAcylated protein, as detected by the ELISA assay, is plotted for each concentration of test compound using standard curve fitting algorithms for sigmoidal dose response curves. The values for a four parameter logistic curve fit of the data are determined, with the inflection point of the curve being the potency value for the test compound.

[3] = Apparent permeability (Papp), bi-directional transport in LLC-PK1 cells; format: in vitro ADME; conditions: pig, 1 μM test compound, t=3 h, average of A to B and B to A
Description: Assay for Determination of Apparent Permeability (Papp)
Bi-directional transport was evaluated in LLC-PK1 cells in order to determine apparent permeability (Papp). LLC-PK1 cells can form a tight monolayer and therefore can be used to assess vectorial transport of compounds from basolateral to apical (B→A) and from apical to basolateral (A→B).
To determine Papp, LLC-PK1 cells were cultured in 96-well transwell culture plates (Millipore). Solutions containing the test compounds (1 μM) were prepared in Hank's Balanced Salt Solution with 10 mM HEPES. Substrate solution (150 μL) was added to either the apical (A) or the basolateral (B) compartment of the culture plate, and buffer (150 μL) was added to the compartment opposite to that containing the compound. At t=3 h, 50 μL samples were removed from both sides of monolayers dosed with test compound and placed in 96 well plates, scintillant (200 μL) or internal standard (100 μL labetolol 1 μM) was added to the samples and concentration was determined by liquid scintillation counting in a MicroBeta Wallac Trilux scintillation counter (Perkin Elmer Life Sciences, Boston, Mass.) or by LCMS/MS (Applied Biosystems SCIEX API 5000 triple quadruple mass spectrometer). […]
The apparent permeability, Papp, was calculated by the following formula for samples taken at t=3 h:
[formula] […] Papp was expressed as 10^−6 cm/s. […]

Sequence of human O-GlcNAcase (O60502 whole entry): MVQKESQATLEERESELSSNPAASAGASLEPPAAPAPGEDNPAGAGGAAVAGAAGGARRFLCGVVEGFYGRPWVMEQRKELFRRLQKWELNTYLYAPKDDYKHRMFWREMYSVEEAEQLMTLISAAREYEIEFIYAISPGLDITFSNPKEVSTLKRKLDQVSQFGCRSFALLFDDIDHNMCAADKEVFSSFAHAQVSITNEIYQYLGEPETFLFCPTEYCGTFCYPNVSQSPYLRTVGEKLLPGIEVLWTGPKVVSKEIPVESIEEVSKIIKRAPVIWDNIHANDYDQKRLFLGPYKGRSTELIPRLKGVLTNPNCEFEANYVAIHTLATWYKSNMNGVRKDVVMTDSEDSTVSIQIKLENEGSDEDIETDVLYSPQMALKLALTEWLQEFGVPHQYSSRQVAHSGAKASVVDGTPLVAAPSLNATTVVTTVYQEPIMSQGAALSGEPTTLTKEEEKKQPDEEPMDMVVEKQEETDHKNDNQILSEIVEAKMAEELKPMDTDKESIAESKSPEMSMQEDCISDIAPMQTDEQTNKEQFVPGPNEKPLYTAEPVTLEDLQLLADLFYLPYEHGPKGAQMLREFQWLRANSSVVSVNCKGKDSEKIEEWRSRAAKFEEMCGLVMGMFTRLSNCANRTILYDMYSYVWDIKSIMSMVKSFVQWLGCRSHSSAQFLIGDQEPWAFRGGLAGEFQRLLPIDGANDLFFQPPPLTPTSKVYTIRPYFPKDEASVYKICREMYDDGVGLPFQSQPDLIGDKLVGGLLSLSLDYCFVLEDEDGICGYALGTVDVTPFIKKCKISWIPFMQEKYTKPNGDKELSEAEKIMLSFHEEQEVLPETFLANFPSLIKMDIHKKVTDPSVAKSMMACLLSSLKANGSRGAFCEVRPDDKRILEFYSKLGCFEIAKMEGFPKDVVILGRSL
Sequence of O-GlcNAcase (Q8VIJ5 whole entry): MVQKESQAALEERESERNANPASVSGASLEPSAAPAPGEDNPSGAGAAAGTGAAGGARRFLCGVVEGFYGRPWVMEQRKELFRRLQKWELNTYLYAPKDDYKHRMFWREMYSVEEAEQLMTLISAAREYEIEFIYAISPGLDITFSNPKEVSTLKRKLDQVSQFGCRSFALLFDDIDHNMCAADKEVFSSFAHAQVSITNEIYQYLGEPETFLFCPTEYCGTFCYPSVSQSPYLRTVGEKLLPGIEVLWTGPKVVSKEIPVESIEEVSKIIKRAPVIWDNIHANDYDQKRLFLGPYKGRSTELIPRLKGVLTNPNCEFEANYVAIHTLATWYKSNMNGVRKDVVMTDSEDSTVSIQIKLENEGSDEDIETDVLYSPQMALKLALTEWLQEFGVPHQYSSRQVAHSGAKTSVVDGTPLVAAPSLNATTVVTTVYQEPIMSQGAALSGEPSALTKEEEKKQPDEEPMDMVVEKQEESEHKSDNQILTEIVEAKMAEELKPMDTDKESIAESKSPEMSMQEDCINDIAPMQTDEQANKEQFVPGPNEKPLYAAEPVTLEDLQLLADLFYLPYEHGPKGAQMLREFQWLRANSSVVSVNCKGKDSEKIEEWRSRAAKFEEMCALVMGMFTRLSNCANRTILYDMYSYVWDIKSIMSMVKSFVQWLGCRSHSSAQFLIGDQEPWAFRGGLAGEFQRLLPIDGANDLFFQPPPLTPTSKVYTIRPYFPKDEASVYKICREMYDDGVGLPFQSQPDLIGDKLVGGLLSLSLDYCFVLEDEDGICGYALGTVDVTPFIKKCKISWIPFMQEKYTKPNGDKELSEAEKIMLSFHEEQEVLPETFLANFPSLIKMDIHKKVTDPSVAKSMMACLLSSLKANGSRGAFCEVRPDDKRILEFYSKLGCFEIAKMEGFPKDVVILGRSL

SMILES	Ki [1] [nM]	EC50 [2] [nM]	Papp at 3 h, 1 μM [3] [×10⁻⁶ cm/s]
CCNC1=N[C@@H]2[C@@H](O)[C@H](O)[C@@H](CO)S[C@@H]2O1 [Example 1, (3aS,5R,6S,7R,7aR)-2-(ethylamino)-5-(hydroxymethyl)-5,6,7,7a-tetrahydro 3aH-thiopyrano[3,2-d]oxazole-6,7-diol]	3		
CCNC1=N[C@@H]2[C@@H](O)[C@H](O)[C@@H](CO)O[C@@H]2S1 [N/A, (3 aR,5R,6S,7R,7aR)-2-(ethylamino)-5-(hydroxymethyl)-5,6,7,7a-tetrahydro-3aH-pyrano[3,2-d]thiazole-6,7-diol, reference compound]			< 1

Further lines, results first:

Ki [1] [nM]	EC50 [2] [nM]	Papp at 3 h, 1 μM [3] [×10⁻⁶ cm/s]	SMILES
3	139	3.7	CCNC1=N[C@H]2[C@@H](S1)S[C@H](CO)[C@@H](O)[C@@H]2O [Example 2, (3aR,5R,6S,7R,7aR)-2-(ethylamino)-5-(hydroxymethyl)-5,6,7,7a-tetrahydro-3aH-thiopyrano[3,2-d]thiazole-6,7-diol]
1.4	29		CCCNC1=N[C@H]2[C@@H](S1)S[C@H](CO)[C@@H](O)[C@@H]2O [Example 3, (3aR,5R,6S,7R,7aR)-5-(hydroxymethyl)-2-(propylamino)-5,6,7,7a-tetrahydro-3aH-thiopyrano[3,2-d]thiazole-6,7-diol]
0.11	3		CNC1=N[C@H]2[C@@H](S1)S[C@H](CO)[C@@H](O)[C@@H]2O [Example 4, (3aR,5R,6S,7R,7aR)-5-(hydroxymethyl)-2-(methylamino)-5,6,7,7a-tetrahydro-3aH-thiopyrano[3,2-d]thiazole-6,7-diol]
22	349		CCNC1=N[C@H]2[C@@H](S1)S[C@H](C(F)F)[C@@H](O)[C@@H]2O [Example 5, (3aR,5S,6S,7R,7aR)-5-(difluoromethyl)-2-(ethylamino)-5,6,7,7a-tetrahydro-3aH-thiopyrano[3,2-d]thiazole-6,7-diol]

From patent US9695197B2, “Glycosidase inhibitors and uses thereof” (Alectos Therapeutics Inc., priority 2012, dated 2017)
